# Experimental data: article PMC7606179 (Acta Pharmaceutica Sinica. B, 2020)
# “Also recorded” adds a separate entry of the source.
# What was measured:
# [1] = target: Oseltamivir resistant (with H274Y mutation) neuraminidase (Influenza A virus, UniProt P03468, H260Y); assay type: biochemical, recombinant PR8 virus with H274Y mutation
# [2] = tested on: PR8 resistant recombinant virus with H274Y mutation in MDCK cells; assay type: cell-based
SMILES,NA inhibitory activity on oseltamivir resistant NA [1],further results
"COC(=O)C1CC(=O)c2oc(=O)c3cc(O)c(O)c(O)c3c21 (stereo not shown) [B15, Methyl brevifolin carboxylate]",can obviously inhibit NA activities,–
"O=C(/C=C/c1ccc(O)cc1)OC[C@H]1O[C@@H](Oc2c(-c3ccc(O)cc3)oc3cc(O)cc(O)c3c2=O)[C@H](O)[C@@H](O)[C@@H]1O [B23, Tiliroside]",–,Effect on replication of oseltamivir resistant (H274Y) PR8 virus in MDCK cells [2]: obviously reduce; also recorded: greatly reduce
"O=c1oc2c(O)c(O)cc3c(=O)oc4c(O)c(O)cc1c4c23 [B21, Ellagic acid]",can obviously inhibit NA activities,–
CCOC(=O)C1=C[C@@H](OC(CC)CC)[C@H](NC(C)=O)[C@@H](N)C1 [Oseltamivir],–,Anti-virus effect on resistant virus with NA H274Y mutation in MDCK cells [2]: didn't show obvious anti-virus effects
